{"source": "patent US7868188B2", "about": "“5-heteroaryl thiazoles and their use as PI3K inhibitors” (AstraZeneca AB, priority 2004, dated 2011)", "key": {"[1]": {"biological_target": "mTOR PI kinase-related kinase (Homo sapiens, UniProt P42345)", "sequence (P42345 1362-2549)": "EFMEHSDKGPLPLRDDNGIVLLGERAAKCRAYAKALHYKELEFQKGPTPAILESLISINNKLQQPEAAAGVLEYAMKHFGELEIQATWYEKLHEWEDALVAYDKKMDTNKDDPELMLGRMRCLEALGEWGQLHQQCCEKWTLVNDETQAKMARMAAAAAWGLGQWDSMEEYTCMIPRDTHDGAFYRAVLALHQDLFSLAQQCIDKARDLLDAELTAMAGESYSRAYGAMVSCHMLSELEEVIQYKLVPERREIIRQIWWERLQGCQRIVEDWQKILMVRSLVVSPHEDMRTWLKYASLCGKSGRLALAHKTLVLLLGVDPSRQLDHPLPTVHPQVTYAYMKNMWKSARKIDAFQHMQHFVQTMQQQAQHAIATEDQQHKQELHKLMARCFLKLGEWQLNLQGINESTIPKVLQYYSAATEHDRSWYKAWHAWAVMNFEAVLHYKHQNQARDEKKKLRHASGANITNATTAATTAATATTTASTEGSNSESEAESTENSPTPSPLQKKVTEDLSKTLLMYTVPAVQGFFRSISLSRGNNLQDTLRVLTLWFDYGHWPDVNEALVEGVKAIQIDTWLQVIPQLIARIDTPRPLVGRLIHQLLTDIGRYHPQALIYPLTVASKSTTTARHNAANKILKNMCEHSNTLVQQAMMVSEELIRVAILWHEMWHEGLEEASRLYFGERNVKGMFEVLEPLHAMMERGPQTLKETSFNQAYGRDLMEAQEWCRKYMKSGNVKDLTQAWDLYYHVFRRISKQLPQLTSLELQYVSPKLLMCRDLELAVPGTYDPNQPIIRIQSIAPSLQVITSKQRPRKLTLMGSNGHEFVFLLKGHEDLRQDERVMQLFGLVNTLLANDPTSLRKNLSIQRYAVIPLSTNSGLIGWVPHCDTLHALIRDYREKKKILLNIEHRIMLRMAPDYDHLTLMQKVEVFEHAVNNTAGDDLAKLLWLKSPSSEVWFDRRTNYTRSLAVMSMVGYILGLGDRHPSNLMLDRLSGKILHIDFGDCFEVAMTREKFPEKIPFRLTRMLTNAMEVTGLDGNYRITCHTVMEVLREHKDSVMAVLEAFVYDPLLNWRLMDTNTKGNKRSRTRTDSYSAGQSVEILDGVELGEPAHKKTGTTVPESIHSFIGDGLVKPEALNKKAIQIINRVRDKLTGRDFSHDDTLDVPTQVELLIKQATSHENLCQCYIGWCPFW", "experiment": "Test (b) In Vitro mTOR PI Kinase-Related Kinase Assay (AlphaScreen)", "assay_type": "biochemical", "conditions": "read-out: IC50 versus mTOR PI kinase-related kinase", "description": "The assay used AlphaScreen technology (Gray et al., Analytical Biochemistry, 2003, 313: 234-245) to determine the ability of test compounds to inhibit phosphorylation by recombinant mTOR.\nThe HEK293 FLAG-tagged mTOR (1362-2549) stable cell line was routinely maintained at 37° C. with 5% CO2 up to a confluency of 70-90% in Dulbecco's modified Eagle's growth medium (DMEM; Invitrogen Limited, Paisley, UK Catalogue No. 41966-029) containing 10% heat-inactivated foetal calf serum (FCS; Sigma, Poole, Dorset, UK, Catalogue No. F0392), 1% L-glutamine (Gibco, Catalogue No. 25030-024) and 2 mg/ml Geneticin (G418 sulphate; Invitrogen Limited, UK Catalogue No. 10131-027). Following expression in the mammalian HEK293 cell line, expressed protein was purified using the FLAG epitope tag using standard purification techniques.\nTest compounds were prepared as 10 mM stock solutions in DMSO and diluted into water as required to give a range of final assay concentrations. Aliquots (2 μl) of each compound dilution were placed into a well of a Greiner 384-well low volume (LV) white polystyrene plate (Greiner Bio-one). […]\nEach reaction was stopped by the addition of 10 μl of a mixture of EDTA (50 mM), bovine serum albumin (BSA; 0.5 mg/ml) and Tris-HCl pH7.4 buffer (50 mM) containing p70 S6 Kinase (T389) 1A5 Monoclonal Antibody (Cell Signalling Technology, Catalogue No. 9206B) and AlphaScreen Streptavidin donor and Protein A acceptor beads (200 ng; Perkin Elmer, Catalogue No. 6760002B and 6760137R respectively) were added and the assay plates were left for about 20 hours at room temperature in the dark. The resultant signals arising from laser light excitation at 680 nm were read using a Packard Envision instrument.\nPhosphorylated biotinylated peptide is formed in situ as a result of mTOR mediated phosphorylation. […] Upon laser light excitation at 680 nm, the donor bead: acceptor bead complex produces a signal that can be measured. […]\nmTOR enzyme inhibition for a given test compound was expressed as an IC50 value."}, "[2]": {"system": "phosphorylation of Serine 473 in Akt (MDA-MB-468 cells)", "experiment": "Test (c) In Vitro phospho-Ser473 Akt Assay", "assay_type": "cell-based", "conditions": "Homo sapiens, read-out: IC50 versus Serine 473 in Akt", "description": "This assay determines the ability of test compounds to inhibit phosphorylation of Serine 473 in Akt as assessed using Acumen Explorer technology (Acumen Bioscience Limited), a plate reader that can be used to rapidly quantitate features of images generated by laser-scanning.\nA MDA-MB-468 human breast adenocarcinoma cell line (LGC Promochem, Teddington, Middlesex, UK, Catalogue No. HTB-132) was routinely maintained at 37° C. with 5% CO2 up to a confluency of 70-90% in DMEM containing 10% heat-inactivated FCS and 1% L-glutamine.\nFor the assay, the cells were detached from the culture flask using ‘Accutase’ (Innovative Cell Technologies Inc., San Diego, Calif., USA; Catalogue No. AT104) using standard tissue culture methods and resuspended in media to give 1.7×10^5 cells per ml. Aliquots (90 μl) were seeded into each of the inner 60 wells of a black Packard 96 well plate (PerkinElmer, Boston, Mass., USA; Catalogue No. 6005182) to give a density of ˜15000 cells per well. Aliquots (90 μl) of culture media were placed in the outer wells to prevent edge effects. The cells were incubated overnight at 37° C. with 5% CO2 to allow them to adhere.\nOn day 2, the cells were treated with test compounds and incubated for 2 hours at 37° C. with 5% CO2. Test compounds were prepared as 10 mM stock solutions in DMSO and serially diluted as required with growth media to give a range of concentrations that were 10-fold the required final test concentrations. Aliquots (10 μl) of each compound dilution were placed in a well (in triplicate) to give the final required concentrations. As a minimum response control, each plate contained wells having a final concentration of 100 μM LY294002 (Calbiochem, Beeston, UK, Catalogue No. 440202). As a maximum response control, wells contained 1% DMSO instead of test compound. Following incubation, the contents of the plates were […] by treatment with a 1.6% aqueous formaldehyde solution (Sigma, Poole, Dorset, UK, Catalogue No. F1635) at room temperature for 1 hour.\nAll subsequent aspiration and wash steps were carried out using a Tecan 96 well late washer (aspiration speed 10 mm/sec). The fixing solution was removed and the contents of the plates were washed with phosphate-buffered saline (PBS; 50 μl; Gibco, Catalogue No. 10010015). The contents of the plates were treated for 10 minutes at room temperature with an aliquot (50 μl) of a cell permeabilisation buffer consisting of a mixture of PBS and 0.5% Tween-20. […] An aliquot of PBS (50 μl) was added to each well and the plates were sealed with black plate sealers and the fluorescence signal was detected and analysed.\nFluorescence dose response data obtained with each compound were analysed and the degree of inhibition of Serine 473 in Akt was expressed as an IC50 value."}}, "note": "Counter-ions that a name gives are not always drawn."}
{"smiles": "CC(=O)Nc1nc(C)c(-c2cnc(Cl)c(NCc3ccc(F)cc3)c2)s1", "note": "[Compound No. 3 within Example 79, N-{5-[6-Chloro-5-(4-fluorobenzylamino)pyridin-3-yl]-4-methyl-1,3-thiazol-2-yl}acetamide]", "values": [{"measurement": "IC50", "setting": "[1]", "value": "~2", "unit": "µM"}, {"measurement": "IC50", "setting": "[2]", "value": "~0.2", "unit": "µM"}]}
{"smiles": "CC(=O)Nc1nc(C)c(-c2cnc(Cl)c(S(=O)(=O)Nc3ccccc3)c2)s1", "note": "[Compound No. 4 within Example 73, N-{5-[6-Chloro-5-(N-phenylsulfamoyl)pyridin-3-yl]-4-methyl-1,3-thiazol-2-yl]acetamide]", "values": [{"measurement": "IC50", "setting": "[1]", "value": "~0.7", "unit": "µM"}, {"measurement": "IC50", "setting": "[2]", "value": "~0.2", "unit": "µM"}]}
{"smiles": "CC(=O)Nc1nc(C)c(-c2cnc(Cl)c(NS(C)(=O)=O)c2)s1", "note": "[Example 28, N-[5-(6-Chloro-5-methylsulfonylaminopyridin-3-yl)-4-methyl-1,3-thiazol-2-yl]acetamide trifluoroacetate]", "values": [{"measurement": "IC50", "setting": "[1]", "value": "~0.02", "unit": "µM"}, {"measurement": "IC50", "setting": "[2]", "value": "~0.3", "unit": "µM"}]}
